The target in one assay is T1, hCA IX (Homo sapiens, UniProt Q16790).
T1 construct: gene CA9; recombinant, transmembrane isoform
Put plainly: stopped-flow CO2 hydration. In kind it is biochemical. An outline of the steps: (§1)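 Recombinant human isozymes, preincubated 10 min at room temperature with inhibitor, were assayed by stopped-flow CO2 hydration (5–10 s, 557 nm, 0.2 mM Phenol Red, 10 mM Hepes pH 7.4, 0.1 M Na2SO4 or NaClO4; substrate CO2-saturated water, 25 °C). At least seven inhibitor concentrations down to 0.01 nM were tested in triplicate; each value is the mean of at least three determinations. Ki was fitted by non-linear least squares with the Cheng-Prusoff equation.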

For a further assay, the target named is T2, hCA I (Homo sapiens, UniProt P00915).
T2 construct: gene CA1; recombinant, cytosolic isoform
T2 sequence (P00915 2-261): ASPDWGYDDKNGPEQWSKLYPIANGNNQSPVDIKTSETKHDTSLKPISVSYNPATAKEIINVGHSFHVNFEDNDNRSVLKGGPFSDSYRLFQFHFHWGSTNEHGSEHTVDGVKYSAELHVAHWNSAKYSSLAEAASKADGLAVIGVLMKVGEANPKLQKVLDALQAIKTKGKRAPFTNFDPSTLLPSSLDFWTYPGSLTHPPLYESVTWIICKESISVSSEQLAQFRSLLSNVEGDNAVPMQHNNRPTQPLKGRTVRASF
Put plainly: stopped-flow CO2 hydration. The class given is biochemical. The procedure, abridged: as §1

Another assay concerns the target T3, hCA II (Homo sapiens, UniProt P00918).
T3 construct: gene CA2; recombinant, cytosolic isoform
The assay can be described thus: stopped-flow CO2 hydration. The class given is biochemical. The conditions noted are these: read-out: hCAII. An outline of the steps: as §1

The target in assay [1] is T4, hCA IV (Homo sapiens, UniProt P22748).
T4 construct: gene CA4
T4 sequence (P22748 19-284): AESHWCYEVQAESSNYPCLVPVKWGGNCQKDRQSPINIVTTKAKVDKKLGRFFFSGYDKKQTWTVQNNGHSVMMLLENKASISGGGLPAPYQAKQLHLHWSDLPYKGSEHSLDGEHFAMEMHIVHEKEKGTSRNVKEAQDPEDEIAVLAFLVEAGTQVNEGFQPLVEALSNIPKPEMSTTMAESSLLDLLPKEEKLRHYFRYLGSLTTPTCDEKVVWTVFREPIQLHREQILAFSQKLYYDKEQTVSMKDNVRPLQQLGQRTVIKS
The assay can be described thus: biochemical. Details: Stopped-flow CO2 hydration assay, phenol red at 557 nm, 10 min preincubation, recombinant hCA; Ki via Cheng-Prusoff. How it is done: An SX.18 MV-R Applied Photophysics (Oxford, UK) stopped-flow instrument has been used for assaying the CA catalyzed CO2 hydration activity. Phenol Red (at a concentration of 0.2 mM) has been used as indicator, working at the absorbance maximum of 557 nm, with 10 mM Hepes (pH 7.4) as buffer, 0.1 M Na2SO4 or NaClO4 (for maintaining constant the ionic strength; these anions are not inhibitory in the used concentration), following the CA-catalyzed CO2 hydration reaction for a period of 5–10 s. Saturated CO2 solutions in water at 25 °C were used as substrate. Stock solutions of inhibitors were prepared at a concentration of 10 μM (in DMSO-water 1:1, v/v) and dilutions up to 0.01 nM done with the assay buffer mentioned above. At least seven different inhibitor concentrations have been used for measuring the inhibition constant. Inhibitor and enzyme solutions were preincubated together for 10 min at room temperature prior to assay, in order to allow for the formation of the E-I complex. Triplicate experiments were done for each inhibitor concentration, and the values reported throughout the paper are the mean of such results. The inhibition constants were obtained by non-linear least-squares methods using the Cheng-Prusoff equation, as reported earlier, and represent the mean from at least three different determinations. All CA isozymes used here were recombinant proteins obtained as reported earlier by our group[10]^c,[25]^,[26]. The newly synthesised compounds 3-sulfamoylbenzamide linked 1,2,3-triazoles (Figure 4) (6a–z) as well as the intermediates (3a–d) and (4a–d) (listed in Table 1) were screened for their CA inhibitory activities against four physiologically significant isoforms, the cytosolic hCA I (associated with edema) and II (associated with glaucoma) as well as the membrane bound hCA IV (associated with glaucoma and retinitis pigmentosa) and transmembrane hCA IX (associated with tumors) by means of the stopped flow carbon dioxide assays[29] in comparison to AAZ as standard CAI (Table 2).

In assay [2] the target is T4, hCA IV. Put plainly: stopped-flow CO2 hydration. The class given is biochemical. An outline of the steps: as §1
The mark [3] stands for this setting: CO2 substrate, pH […] Hepes, […] °C, […] min preincubation.

Where two headings read alike, the source gives them in different places.

As for `NS(=O)(=O)c1cccc(C(=O)O)c1` [3a, 3-Sulfamoylbenzoic acid], the Ki at hCA IX was determined as 9.42 µM; on hCA I, 8.77 µM; at hCA II, 8.66 µM.
For the molecule `NS(=O)(=O)c1cc(C(=O)O)ccc1Cl` [3b, 4-Chloro-3-sulfamoylbenzoic acid], the Ki on hCA IX was 8.98 µM; on hCA I, 8.85 µM; at hCA IV [1], 2.47 µM; on hCA II, 1.38 µM.
Consider `NS(=O)(=O)c1cc(C(=O)O)ccc1F` [3c, 4-Fluoro-3-sulfamoylbenzoic acid], for which the Ki at hCA IX is 9.57 µM; on hCA I it was 5.75 µM; on hCA IV [1], 0.958 µM; at hCA II, 0.76 µM.
Consider `COc1ccc(C(=O)O)cc1S(N)(=O)=O` [3d, 4-Methoxy-3-sulfamoylbenzoic acid], for which the Ki on hCA IX stood at 9.67 µM; at hCA I, 9.76 µM; at hCA IV [1], 8.78 µM; at hCA II it was 9.18 µM.
As to `C#CCNC(=O)c1cccc(S(N)(=O)=O)c1` [4a, N-(prop-2-yn-1-yl)-3-sulfamoylbenzamide], the Ki amounted to 9.36 µM on hCA IX, 9.28 µM on hCA I, 8.46 µM on hCA IV [1] and 0.514 µM at hCA II.
As for `C#CCNC(=O)c1ccc(Cl)c(S(N)(=O)=O)c1` [4b, 4-Chloro-N-(prop-2-yn-1-yl)-3-sulfamoylbenzamide], the Ki at hCA IX was 0.447 µM; at hCA I, 4.93 µM; on hCA IV [2], 0.0788 µM; on hCA II, 0.0735 µM.
Taken in the same sequence, the figures for `C#CCNC(=O)c1ccc(F)c(S(N)(=O)=O)c1` [4c, 4-Fluoro-N-(prop-2-yn-1-yl)-3-sulfamoylbenzamide] were 0.816 µM, 0.747 µM, 0.429 µM and 0.165 µM.
Consider `C#CCNC(=O)c1ccc(OC)c(S(N)(=O)=O)c1` [4d, 4-Methoxy-N-(prop-2-yn-1-yl)-3-sulfamoylbenzamide], for which the Ki at hCA IX was 9.22 µM; on hCA I it was 9.5 µM; on hCA IV [1], 6.84 µM; at hCA II it was 5.53 µM.
In the case of `NS(=O)(=O)c1cccc(C(=O)NCc2cn(-c3ccccc3)nn2)c1` [6a, N-((1-phenyl-1H-1,2,3-triazol-4-yl)methyl)-3-sulfamoylbenzamide], the Ki came out at 7.98 µM on hCA IX, 0.753 µM at hCA I, 9.42 µM on hCA IV [1] and 4.49 µM on hCA II.
As to `COc1cc(-n2cc(CNC(=O)c3cccc(S(N)(=O)=O)c3)nn2)cc(OC)c1OC` [6b, 3-Sulfamoyl-N-((1–(3,4,5-trimethoxyphenyl)-1H-1,2,3-triazol-4-yl)methyl)benzamide], the Ki is 4.9 µM on hCA IX, 0.855 µM on hCA I and 8.97 µM on hCA II.
Turning to `NS(=O)(=O)c1cccc(C(=O)NCc2cn(-c3cccc([N+](=O)[O-])c3)nn2)c1` [6c, N-((1–(3-nitrophenyl)-1H-1,2,3-triazol-4-yl)methyl)-3-sulfamoylbenzamide], the Ki at hCA IX is 6.92 µM; on hCA I, 0.952 µM; on hCA II it was 9.27 µM.
On to `NS(=O)(=O)c1cccc(C(=O)NCc2cn(-c3cccc(F)c3)nn2)c1` [6d, N-((1–(3-fluorophenyl)-1H-1,2,3-triazol-4-yl)methyl)-3-sulfamoylbenzamide], for which the Ki at hCA IX is 7.42 µM; at hCA I, 0.867 µM; on hCA IV [1], 8.84 µM; on hCA II, 2.97 µM.
For the molecule `N#Cc1cccc(-n2cc(CNC(=O)c3cccc(S(N)(=O)=O)c3)nn2)c1` [6e, N-((1–(3-cyanophenyl)-1H-1,2,3-triazol-4-yl)methyl)-3-sulfamoylbenzamide], the Ki on hCA IX stood at 3.19 µM; on hCA I it was 0.431 µM; on hCA IV [1], 9.3 µM; at hCA II, 2.36 µM.
Regarding `COc1ccc(-n2cc(CNC(=O)c3cccc(S(N)(=O)=O)c3)nn2)cc1` [6f, N-((1–(4-methoxyphenyl)-1H-1,2,3-triazol-4-yl)methyl)-3-sulfamoylbenzamide], the Ki at hCA IX (setting [3]) is 6.75 µM; at hCA I (setting [3]), 0.888 µM; at hCA II (setting [3]) it was 9.01 µM.
As to `Cc1cccc(-n2cc(CNC(=O)c3cccc(S(N)(=O)=O)c3)nn2)c1C` [6g, N-((1–(2,3-dimethylphenyl)-1H-1,2,3-triazol-4-yl)methyl)-3-sulfamoylbenzamide], the Ki at hCA IX was determined as 6.13 µM; at hCA I, 0.448 µM; at hCA IV [1], 8.58 µM; at hCA II it was 0.366 µM.
As to `Cc1ccc(-n2cc(CNC(=O)c3cccc(S(N)(=O)=O)c3)nn2)c(C)c1` [6h, N-((1–(2,4-dimethylphenyl)-1H-1,2,3-triazol-4-yl)methyl)-3-sulfamoylbenzamide], the Ki on hCA IX amounted to 0.226 µM; on hCA I, 0.693 µM; at hCA IV [1], 1.76 µM; on hCA II, 0.516 µM.
Turning to `NS(=O)(=O)c1cc(C(=O)NCc2cn(-c3ccccc3)nn2)ccc1Cl` [6i, 4-Chloro-N-((1-phenyl-1H-1,2,3-triazol-4-yl)methyl)-3-sulfamoylbenzamide], the Ki is 0.0844 µM at hCA IX, 0.312 µM at hCA I, 0.17 µM on hCA IV [2] and 0.0712 µM on hCA II.
Turning to `COc1ccc(C(=O)NCc2cn(-c3ccccc3)nn2)cc1S(N)(=O)=O` [6u, 4-Methoxy-N-((1-phenyl-1H-1,2,3-triazol-4-yl)methyl)-3-sulfamoylbenzamide], the Ki amounted to 0.703 µM on hCA IX, 0.681 µM at hCA I, 9.35 µM at hCA IV [1] and 2.9 µM at hCA II.
The corresponding values for `COc1ccc(C(=O)NCc2cn(-c3ccc(F)cc3)nn2)cc1S(N)(=O)=O` [6v, N-((1–(4-fluorophenyl)-1H-1,2,3-triazol-4-yl)methyl)-4-methoxy-3-sulfamoylbenzamide] are 6.82 µM, 0.572 µM, 5.35 µM and 9.65 µM.
Regarding `COc1ccc(C(=O)NCc2cn(-c3ccc(C)cc3)nn2)cc1S(N)(=O)=O` [6w, 4-Methoxy-3-sulfamoyl-N-((1-(p-tolyl)-1H-1,2,3-triazol-4-yl)methyl)benzamide], the Ki at hCA IX is 0.526 µM; at hCA I, 0.967 µM; at hCA IV [1], 7.62 µM; at hCA II, 4.16 µM.
As for `COc1ccc(C(=O)NCc2cn(-c3ccc(C)cc3C)nn2)cc1S(N)(=O)=O` [6x, N-((1–(2,4-dimethylphenyl)-1H-1,2,3-triazol-4-yl)methyl)-4-methoxy-3-sulfamoylbenzamide], the Ki is 0.0938 µM at hCA IX, 7.56 µM on hCA I, 9.34 µM on hCA IV [1] and 6.39 µM at hCA II.
With `COc1ccc(C(=O)NCc2cn(-c3ccc(Br)cc3)nn2)cc1S(N)(=O)=O` [6y, N-((1–(4-bromophenyl)-1H-1,2,3-triazol-4-yl)methyl)-4-methoxy-3-sulfamoylbenzamide], the Ki at hCA IX turned out to be 1.87 µM; at hCA I, 0.555 µM; at hCA IV [1], 9.08 µM; at hCA II, 2.33 µM.
As to `COc1ccccc1-n1cc(CNC(=O)c2ccc(OC)c(S(N)(=O)=O)c2)nn1` [6z, 4-Methoxy-N-((1–(2-methoxyphenyl)-1H-1,2,3-triazol-4-yl)methyl)-3-sulfamoylbenzamide], the Ki is 0.768 µM at hCA IX, 0.952 µM at hCA I, 8.93 µM on hCA IV [1] and 5.37 µM on hCA II.

The record behind these values is PMC6598542, “Synthesis of a new series of 3-functionalised-1-phenyl-1,2,3-triazole sulfamoylbenzamides as carbonic anhydrase I, II, IV and IX inhibitors” (Journal of Enzyme Inhibition and Medicinal Chemistry, 2019).
